“Also recorded” adds a separate entry of the source.
What was measured:
[1] = system: male Sprague-Dawley rats with steatosis, induced by choline and methionine deficient (MCD) diet; assay: Alanine aminotransferase (ALT) activity in plasma, animal study Step #2 (FIG. 1); assay type: in vivo, rat
Protocol: ALT activity is determined by a modification recommended by the International Federation of Clinical Chemistry (IFCC), see also Example 2. ALT catalyzes the reaction of alpha-ketoglutarate with L-alanine to form L-glutamate and pyruvate. Under the action of LDH, pyruvate converts to lactate, and NADH is converted to NAD. The decrease in absorbance of NADH, measured at 340 nm (secondary wavelength is 700 nm), is directly proportional to the serum activity of ALT. It is a kinetic reaction. In general, serum is used for analysis. The serum is separated from the cells within 2 hours of collection and stored at -70° C. until assayed, Monitoring the ALT activity over time in an animal model is used herein as one straightforward and conclusive way to determine the efficacy of GPC in treating liver disease, specifically liver damage caused by a choline-deficient diet (Examples 1 and 2, FIGS. 1 and 2), Plasma-free choline concentration can be determined by high-pressure liquid chromatography (HPLC) and gas chromatography-mass spectrometry according to protocols known in the art (Pomfret et. al.: Measurement of choline and choline metabolite concentrations using high pressure liquid chromatography and gas chromatography-mass spectrometry. Anal Biochem. 1989; 180: 85-90). The effects of GPC as well as of the combination of DHA, ARA and GPC were investigated in a sick animal model, wherein male Sprague-Dawley rats with steatosis, induced by choline and methionine deficient (MCD) diet (S SNIFF MCD pelleted choline/methionine deficient diet (SSNIFF Spezialdiäten GmbH, Soest, Germany, Product No. E15653-94)) were kept on parenteral nutrition. Steatosis was confirmed in the respective groups by histopathology (Example 3). Parenteral nutrition started after 14 days under MCD diet. First measurements were done after 5 days of parenteral nutrition, followed by measurements after 9 and 17 days. The daily lipid uptake was 2.31 g/kg/d. The rats were split into several groups as set forth below in Table I. Two groups served as control groups, wherein a first group was treated with saline solution (0.90% w/v of NaCl in water for injection). A second group received a lipid emulsion (“LE 10%”) containing refined olive oil (80.0 g/L) and refined soybean oil (20.0 g/L) in water for injection, pH 6-8; LE 10% further contained egg lecithin (6.0 g/L), glycerol (11.25 g/L) and sodium oleate (0.15 g/L). LE 10% contained 100 g/L lipids. […] Pharmaceutical Secondary Standard, was purchased from Sigma-Aldrich (Merck KGaA, Germany). […] As described before, liver damage (cholestasis) may be determined by increased aminotransferase levels. ALT activity was determined with an ADVIA 1800 blood biochemistry analyzer/IFCC modified (Siemens) according to standard protocols such as described before.

[2] = system: male Sprague-Dawley rats with steatosis, induced by choline and methionine deficient (MCD) diet; assay: Liver histopathology, vacuolation, choline derivatives alone, Step #2 (FIG. 3A); assay type: in vivo, rat; settings: no DHA and ARA
Text: (§1) The effects of GPC as well as of the combination of DHA, ARA and GPC were investigated in a sick animal model, wherein male Sprague-Dawley rats with steatosis, induced by choline and methionine deficient (MCD) diet (S SNIFF MCD pelleted choline/methionine deficient diet (SSNIFF Spezialdiäten GmbH, Soest, Germany, Product No. E15653-94)) were kept on parenteral nutrition.
(§2) Parenteral nutrition started after 14 days under MCD diet. First measurements were done after 5 days of parenteral nutrition, followed by measurements after 9 and 17 days. The daily lipid uptake was 2.31 g/kg/d. The rats were split into several groups as set forth below in Table I.
(§3) Two groups served as control groups, wherein a first group was treated with saline solution (0.90% w/v of NaCl in water for injection). A second group received a lipid emulsion (“LE 10%”) containing refined olive oil (80.0 g/L) and refined soybean oil (20.0 g/L) in water for injection, pH 6-8; LE 10% further contained egg lecithin (6.0 g/L), glycerol (11.25 g/L) and sodium oleate (0.15 g/L). LE 10% contained 100 g/L lipids.
(§4) Various choline derivatives selected from the group consisting of choline chloride, glycerophosphocholine (GPC) and cytidine diphosphate-choline (CDP-choline) were added in two concentrations (low/high) to LE 10%, respectively, see Table I (Step #2). “Low” refers to a concentration of 15 mmol/L lipid emulsion, “high” refers to a concentration of 31 mmol/L of lipid emulsion. Choline chloride (2-Hydroxyethyl)trimethylammonium chloride). Pharmaceutical Secondary Standard, was purchased from Sigma-Aldrich (Merck KGaA, Germany). CDP-choline (prepared by fermentation) was from TCI Europe N.V. (Antwerp, Belgium). Glycerophosphocholine, prepared from egg phosphatide by saponification, was supplied by Lipoid GmbH, Germany. DHA (from algae, Schizochytrium sp.) and ARA (from fungi, Mortierella alpina) were purchased from BASF AG, Germany, Vitamin E was purchased from ADM (IL, U.S.A.)

[3] = system: male Sprague-Dawley rats with steatosis, induced by choline and methionine deficient (MCD) diet; assay: Liver weight to body weight ratio (FIG. 4); assay type: in vivo, rat
Text: as §1, §2, §3, §4
The study groups as described in Example 1 were further evaluated with regard to the development of liver weight versus body weight. An increase in liver weight which is not proportional to the increase of body weight is typical for the development of liver damage, specifically steatosis, as described before.

[4] = Stability of lipid emulsions upon sterilization in the presence of choline derivatives; assay type: physicochemical; settings: for Stability of lipid emulsion upon sterilization (Comment): heat sterilization; for stability of the lipid emulsions during sterilization (heat): lipid emulsions prepared as in Example 1
Text: In a first step, raw phases are heated up. […] The receiving vessel is closed and flushed with nitrogen.

[5] = system: male Sprague-Dawley rats with steatosis, induced by choline and methionine deficient (MCD) diet; assay: ALT activity in percent of the normal value, animal study Step #3 (FIG. 2); assay type: in vivo, rat
Protocol: ALT activity is determined by a modification recommended by the International Federation of Clinical Chemistry (IFCC), see also Example 2. ALT catalyzes the reaction of alpha-ketoglutarate with L-alanine to form L-glutamate and pyruvate. Under the action of LDH, pyruvate converts to lactate, and NADH is converted to NAD. The decrease in absorbance of NADH, measured at 340 nm (secondary wavelength is 700 nm), is directly proportional to the serum activity of ALT. It is a kinetic reaction. In general, serum is used for analysis. The serum is separated from the cells within 2 hours of collection and stored at −70° C. until assayed, Monitoring the ALT activity over time in an animal model is used herein as one straightforward and conclusive way to determine the efficacy of GPC in treating liver disease, specifically liver damage caused by a choline-deficient diet (Examples 1 and 2, FIGS. 1 and 2), Plasma-free choline concentration can be determined by high-pressure liquid chromatography (HPLC) and gas chromatography-mass spectrometry according to protocols known in the art (Pomfret et. al.: Measurement of choline and choline metabolite concentrations using high pressure liquid chromatography and gas chromatography-mass spectrometry. Anal Biochem. 1989; 180: 85-90). […] As described before, liver damage (cholestasis) may be determined by increased aminotransferase levels. […]

[6] = plasma, day 5 to day 17 of parenteral nutrition, choline derivative 31 mmol/L (high) in LE 10%
[7] = choline derivative low, 15 mmol/L in LE 10%
[8] = choline derivative high, 31 mmol/L in LE 10%, versus LE 10% alone
[9] = choline derivative high, 31 mmol/L in LE 10%
[10] = phosphatidylcholine as contained in the lipid emulsion(s)

C[N+](C)(C)CCOP(=O)(O)OP(=O)([O-])OC[C@H]1O[C@@H](n2ccc(N)nc2=O)[C@H](O)[C@@H]1O [CDP-choline, cytidine diphosphate-choline]
development of ALT activity [1, 6]: ALT activity neither significantly increases or decreases | effect on liver vacuolation (histopathological examination) [2, 7]: also had an effect | liver to body weight ratio [3, 8]: reduction of the ratio | Stability of lipid emulsion upon sterilization (Comment) ([4]; 30 mmol/L, lipid emulsion tested LE 10 %): Phase separation | stability of the lipid emulsions during sterilization (heat) [4]: destabilize the lipid emulsions during sterilization

C[N+](C)(C)CCOP(=O)([O-])OC[C@@H](O)CO [GPC, (2-{[(2S)-2,3-dihydroxypropylphosphonato]oxy}ethyl)trimethylazanium]
development of ALT activity [1, 6]: clear drop in ALT activity; also recorded: most pronounced | ALT activity, change versus normal value ([5]; GPC 40 mmol/L in lipid emulsion, normal (LE 10%) or reduced (LE 13%) phytosterol content): significant decrease of ALT activity | effect on liver vacuolation (histopathological examination) [2, 9]: significantly better | effect on liver vacuolation (histopathological examination) [2, 7]: significantly better | liver to body weight ratio [3, 8]: most pronounced reduction of the ratio | Stability of lipid emulsion upon sterilization (Comment) ([4]; 30 mmol/L, lipid emulsions tested LE 10, 20 %): Stable emulsion | stability of the lipid emulsions during sterilization (heat) [4]: remained stable

C[N+](C)(C)CCO.[Cl-] [choline chloride, (2-Hydroxyethyl)trimethylammonium chloride]
development of ALT activity [1, 6]: ALT activity neither significantly increases or decreases | effect on liver vacuolation (histopathological examination) [2, 9]: fared better than those with only saline or lipid emulsion without any choline derivative | effect on liver vacuolation (histopathological examination) [2, 7]: fared better than those with only saline or lipid emulsion without any choline derivative | liver to body weight ratio [3, 8]: reduction of the ratio | Stability of lipid emulsion upon sterilization (Comment) ([4]; 15 mmol/L, lipid emulsions tested LE 10, 13, 20 %): Phase separation | stability of the lipid emulsions during sterilization (heat) [4]: destabilize the lipid emulsions during sterilization

phosphatidylcholine
development of ALT activity ([1]; phosphatidylcholine as contained in LE lipid emulsion, 17 days parenteral nutrition): does not seem to have any effect | ALT activity, change versus normal value [5, 10]: does not seem to have any effect | liver to body weight ratio [3, 10]: does not seem to have any effect

Reference: US12171866B2, “Lipid emulsion for parenteral nutrition comprising GPC” (BAXTER INTERNATIONAL INC., priority 2018, dated 2024)
